Results: patent publication US20260335282A1, “NOVEL 3-ARYLIDENE-2-INDOLINONE DERIVATIVES FOR THERAPEUTIC USE” (ISTANBUL UNIVERSITESI REKTORLUGU, priority 2022, published 2026)
Entries after “also recorded” stand apart in the source; their conditions may differ.

Legend:
Assay type in all cases: cell-based, human
MCF-10F/Beas2b cells = assay: MTT cytotoxicity, healthy cells MCF-10F/Beas2b; conditions: for Selectivite Index, MCF-10F/Beas2b (Table 2): MCF-10F/Beas2b vs colon or pancreas cancer cells, cancer line not given
From the text: (§1) The cytotoxicity, general tyrosine kinase inhibitory effects and cell death (apoptosis/necrosis) assays of 1-benzyl-3-(1H-indol-3-ylmethylidene)-1,3-dihydro-2H-indol-2-one derivatives (Formula 5) of the present invention are studied by the following methods. […] HUVEC (human umbilical vein endothelial cell), MCF-10F (human breast epithelial cell) and Beas2b (human lung bronchial epithelial cell) cell lines have been used as healthy control cells in MTT experiments.
(§2) Beas2b (human lung bronchiole epithelial cell) and HEK293 (renal tubule epithelium) cells used as normal cell lines were cultured in RPMI medium, and HUVEC (human umbilical cord endothelial cells) and MCF-10F (human breast epithelial cell) cells are cultured in DMEM medium containing 100 µg/ml penicillin/streptomycin. The cells, which covered 70% of the culture flask, are washed with phosphate buffer and then removed from the surface of the flask by application of trypsin-ethylenediamine tetraacetic acid (Trypsin-EDTA; 0.25%) solution, passaged, counted and seeded on appropriate plates before each experiment. Cells are treated with a total of 45 2-indolinone compounds (5) at concentrations of 0.1, 1, 5 and 10 μM. Stock compounds are prepared in 1 ml dimethylsulfoxide (DMSO) and 4 different dilutions were prepared with medium and performed to the cells. Control group cells are treated with DMSO at a similar concentration to the experimental groups.
(§3) MTT (3-(4,5-dimethylthiazol-2-yl)-2,5-diphenyl-2H-tetrazolium bromide) colorimetric assay provides quantitation of viable cells with ongoing mitochondrial activity in culture medium. According to the standard procedure in cell culture conditions, cells are maintained in RPMI-1640 and DMEM culture media containing 10% FBS and 1% penicillin/streptomycin. The trypan blue test is used for cell counts.
(§4) The effects of 45 2-indolinone compounds (5) on cell viability in all cancer cell lines are investigated by MTT assay. Cells are seeded in a 96-well flat bottom plate with 5000 cells in each well and 2-indolinone compounds (5) at concentrations of 0.1, 1, 5 and 10 μM are performed to the cells the next day. After 48 and/or 72 hours following treatment with 2-indolinone compounds, 50 μl of the supernatant is slowly discarded (as it was acid medium) and MTT at a concentration of 5 mg/ml is added to each well in a volume of 10 μl. After incubation for 4 hours, the formazan crystals formed in the wells are dissolved by adding 100 μl DMSO and the optical density is read at 570 nm test wavelength and 630 nm reference wavelength. Cell viability is expressed as % cell viability by comparing the absorbance of control and test wells. IC50 value is calculated from the dose-response curves prepared for each compound. In addition, the possible DMSO effect is eliminated by preparing negative control wells compatible with the amount of DMSO contained in the compounds. To understand the reaction of the compounds with MTT, cell-free (MTT+compounds) negative controls are prepared at the concentrations used (Mosmann, 1983). […] The absorbance values obtained are compared to the control and statistically evaluated by unpaired t-test using “Graphpad Prism 5.04” software. “P<0.05” is accepted as significant. When evaluating cytotoxic effects, the present inventors aim for the inventive compounds to be effective in cancer cells and ineffective in healthy cells. The inventive compounds have also been compared with sunitinib, one of the reference chemotherapy drugs currently used in treatment.
(§5) Among the compounds of the present invention, those that killed cancer cells by at least 50% (p<0.05) are selected and tested whether a 10-fold concentration of the M concentration at the IC50 value is toxic to normal healthy cells.

MCF-7 cells = assay: MTT cytotoxicity, breast cancer cells MCF-7; conditions: MTT, no * mark (incubation time not specified)
From the text: as §1, §2, §3, §4, §5

[1] = test system: general tyrosine kinase activity in MIA PaCa-2 pancreas cancer cells; assay: General tyrosine kinase activity (ELISA) in MIAPaCa-2 cells; conditions: 72 hours, IC50 concentration
Procedure: Takara Universal Tyrosine Kinase Assay Kit is used to determine the effects of 11 2-indolinone compounds (Y1, Y2, Y3, Y4, Y5, Y8, […], […], Y21, Y23, 20C, 22C) on general tyrosine kinase activity in cancer cells. Cells are seeded in 6-well plates (4.10^5 cells/well) and the IC50 concentration of each selected molecule is performed to the cells for 48 or 72 hours. Cells in the control group are incubated with medium only. At the end of the incubation period, the cells in each well are washed with PBS and cells are removed from the wells using a cell scraper via 1 ml of the extraction buffer in the kit. The cell lysate is transferred to ependorf tubes and centrifuged at 10.000 g for 10 minutes at +4° C. and the supernatant is used as a sample for activity determination. After the extracts obtained from the control and experimental groups are diluted 1:25, 40 μl extracts is transferred to two wells in the 96-well plate in the kit. In addition, the standard solution in the kit is diluted according to the kit instructions and each concentration is transferred 40 μl into three wells. 10 μl of 40 mM ATP-2Na solution is added to all wells and the plate is incubated at 37° C. for 30 minutes. After incubation, all wells are washed 4 times with wash buffer. 100 μl of blocking solution is added to each well and incubated again at 37° C. for 30 minutes. After incubation, the liquid in the wells is discarded and 50 μl of anti-phosphotyrosine-HRP solution is added to each well and incubated at 37° C. for 30 minutes. The wells are washed again four times with wash buffer and 100 μl of HRP-substrate solution (TMBZ) is added to each well and incubated at 37° C. for 15 minutes. The reaction is finished by adding 100 μl of stop solution to each well and the optical density in each well is measured at 405 nm with a microplate reader (BioTek, USA). The tyrosine kinase activity in each sample is calculated from the standard curve obtained from the absorbance values of the standard solutions with the kit (Chan W Y, Lau P M, Yeung K W, Kong S K. The second generation tyrosine kinase inhibitor dasatinib induced eryptosis in human erythrocytes—An in vitro study. Toxicol Lett. 2018; 295:10-21). This activity is normalized compared to the control group by dividing by the amount of protein in each sample.
The effects of 11 2-indolinone compounds (Y1, Y2, Y3, Y4, Y5, Y8, Y14, Y21, Y23, 20C and 22C) having the structure of formula (5), which are prominent with their cytotoxicity in A498, MIAPaCa-2 and HCT-116 cancer cell lines and nontoxic properties in healthy cells, on general tyrosine kinase activity in cancer cells are determined.

HT-29 cells = assay: MTT cytotoxicity, colon cancer cells HT-29; conditions: MTT, no * mark (incubation time not specified)
From the text: as §1, §2, §3, §4

MIAPaCa-2 cells [2] = assay: MTT cytotoxicity, pancreas cancer cells MIAPaCa-2; conditions: for selectivity index: MCF-10F/Beas2b vs MIAPaCa-2; for IC50: MTT, no * mark (incubation time not specified)
From the text: as §1, §2, §3, §4

CAKI-1 cells = assay: MTT cytotoxicity, kidney cancer cells CAKI-1; conditions: no * mark (incubation time not specified)
From the text: as §1, §2, §3, §4, §5

HUVEC cells = assay: MTT cytotoxicity, healthy cells HUVEC; conditions: for Selectivite Index, HUVEC (Table 2): HUVEC vs colon or pancreas cancer cells, cancer line not given; for IC50: MTT, no * mark (incubation time not specified)
From the text: as §1, §2, §3, §4, §5

A549 cells = assay: MTT cytotoxicity, lung cancer cells A549; conditions: no * mark (incubation time not specified)
From the text: as §1, §2, §3, §4, §5

MDA-MB-231 cells = assay: MTT cytotoxicity, breast cancer cells MDA-MB-231; conditions: read-out: IC50, MDA-MB-231 (breast); MTT, no * mark (incubation time not given)
From the text: as §1, §2, §3, §4, §5

HCT-116 cells = assay: MTT cytotoxicity, colon cancer cells HCT-116; conditions: no * mark (incubation time not specified)
From the text: as §1, §2, §3, §4

A498 cells = assay: MTT cytotoxicity, kidney cancer cells A498; conditions: MTT, no * mark (incubation time not specified)
From the text: as §1, §2, §3, §4, §5

[3] = test system: pancreas and kidney cancer cells; assay: Apoptosis detection, Annexin V/PI flow cytometry, pancreas and kidney cancer cells
Procedure: (§6) After incubation with 2-indolinone compounds (IC50 μM concentration; 48 and/or 72 hours), cells are washed twice with PBS and the cell pellet is suspended in Annexin V binding buffer. After this incubation, cells are incubated with FITC-conjugated Annexin V and propidium iodine staining solution for 15 minutes in the dark and at room temperature. Then, cells are analyzed by flow cytometry (Beckman coulter, Navios) (Wlodkowic, D., Skommer, J, Darzynkiewicz, Z. 2009. Flow cytometry-based apoptosis detection, Methods Mol Biol., 559, 1-14).
Whether the 2-indolinone derivatives (5) with the highest selectivity index and general TKI activity stimulated apoptosis and necrosis is determined by Annexin V and propidium iodine staining in pancreas and kidney cancer cells. Annexin V/PI flow cytometry apoptosis values of the tested compounds Y1, Y2, Y3, Y4, Y8 and Y14 are found to be 40% and above in correlation with MTT results. The apoptosis rates of the control groups and the substances are analyzed by t test in GraphPad version 9.0.

MIAPaCa-2 cells [4] = assay: Apoptosis/necrosis detection, Annexin V/PI flow cytometry, MiaPaca-2; conditions: for necrosis compared to control: MiaPaca-2; for apoptosis (early and late) compared to control: MiaPaca-2, IC50 values
Procedure: as §6

Row | Structure (SMILES) | Selectivite Index, MCF-10F/Beas2b (Table 2) (MCF-10F/Beas2b cells) | IC50 (MCF-7 cells) [µM] | general tyrosine kinase activity compared to control [1] | IC50 (HT-29 cells) [µM] | selectivity index (MIAPaCa-2 cells [2]) | IC50 (MIAPaCa-2 cells [2]) [µM] | IC50 (CAKI-1 cells) [µM] | Selectivite Index, HUVEC (Table 2) (HUVEC cells) | IC50 (HUVEC cells) [µM] | IC50 (A549 cells) [µM] | IC50 (MDA-MB-231 cells) [µM] | IC50 (HCT-116 cells) [µM] | IC50 (A498 cells) [µM] | Annexin V/PI flow cytometry apoptosis values [3] [%] | necrosis compared to control (MIAPaCa-2 cells [4]) | apoptosis (early and late) compared to control (MIAPaCa-2 cells [4]) | IC50 (MCF-10F/Beas2b cells; MTT, no * mark (incubation time not specified)) [µM]
1 | O=C1/C(=C\c2c[nH]c3ccccc23)c2cc(Cl)ccc2N1Cc1ccccc1 [Y2] | > 20.83 | 4.16 | significantly decreased; also recorded: decreased the general tyrosine kinase activity | 1.52 | > 21 | 0.48 | 4.25 | 2.21 | 1.06 | 4.04 | 4.96 | 1.44 | 2.36 | ≥ 40 | – | – | –
2 | O=C1/C(=C\c2c[nH]c3ccccc23)c2cc(F)ccc2N1Cc1ccccc1 [Y5] | > 37.04 | 4.44 | significantly decreased; also recorded: decreased the general tyrosine kinase activity | 2.98 | > 37 | 0.27 | 3.42 | 8.04 | 2.17 | 7.81 | 7.94 | 2.05 | 4.32 | – | did not cause necrosis | increase in apoptosis at IC50 values was statistically significant | –
3 | Cn1cc(/C=C2\C(=O)N(Cc3ccccc3)c3ccc(OC(F)(F)F)cc32)c2ccccc21 [Y14] | 45.06 | 6.09 | significantly decreased; also recorded: decreased the general tyrosine kinase activity | > 10 | – | 0.15 | > 10 | > 66.66 | > 10 | > 10 | > 10 | > 10 | > 10 | ≥ 40 | did not cause necrosis | increase in apoptosis at IC50 values was statistically significant | 6.76
